According to ChEMBL document CHEMBL5620406, “Synthesis and biological evaluation of novel pyrazole amides as potent mitochondrial complex I inhibitors” (Eur J Med Chem, 2023):
The source made the active and inactive calls. The calls are words filed in the database; no cut-off is given here.

Key:
Homo sapiens = organism: Homo sapiens; test: Inhibition of mitochondrial complex I (unknown origin) at 1 uM incubated for 15 mins by microplate reader analysis relative to control
[1] = Inhibition of mitochondrial complex I (unknown origin) incubated for 15 mins by microplate reader analysis; set-up: species or system Homo sapiens
NCM460 = test: Antiproliferative activity against human NCM460 cells assessed as inhibition of cell growth incubated for 96 hrs by MTT assay; assay type: functional, cell-based; conditions: NCM460, 96 h
[2] = Apparent permeability across apical to basolateral side in human Caco-2 cells incubated for 120 mins by LC-MS/MS analysis; assay type: ADME, cell-based
HCT-116 [3] = test: Antiproliferative activity against human HCT-116 cells assessed as inhibition of cell growth incubated for 96 hrs by MTT assay; assay type: functional, cell-based; conditions: HCT-116, 96 h
KG-1 [4] = test: Antiproliferative activity against human KG-1 cells assessed as inhibition of cell growth incubated for 96 hrs by MTT assay; assay type: functional, cell-based; conditions: KG-1, 96 h
[5] = Apparent permeability across basolateral side to apical in human Caco-2 cells incubated for 120 mins by LC-MS/MS analysis; assay type: ADME, cell-based
HCT-116 [6] = test: Induction of mitochondrial membrane potential depolarization in human HCT-116 cells at 2 nM incubated for 24 hrs by JC-1 staining based flow cytometry analysis; assay type: functional
KG-1 [7] = test: Induction of ROS generation in human KG-1 cells at 32 nM measured for 30 mins by DCFDA-staining based flow cytometry analysis; assay type: functional, cell-based
[8] = Efflux ratio of apparent permeability across basolateral to apical membrane to apical to basolateral membrane in human Caco-2 cells incubated for 120 mins by LC-MS/MS analysis; assay type: ADME, cell-based

## Cc1ccc(NC(=O)c2cc(C)n(Cc3cccc(N4CCN(C(=O)C5CC5)CC4)c3)n2)cc1
Homo sapiens
  inhibition: 7.73%

## Cc1cc(C(=O)Nc2ccc(OC(F)(F)F)cc2)nn1Cc1cccc(S(=O)(=O)N2CCOCC2)c1
Homo sapiens
  inhibition: 4.42%

## Cc1cc(C(=O)Nc2cccnc2)nn1Cc1cccc(N2CCN(C(=O)C3CC3)CC2)c1
Homo sapiens
  inhibition: 16.1%

## Cc1cc(C(=O)Nc2ccc(OC(F)(F)F)cc2)nn1Cc1cccc(-c2ccc(S(C)(=O)=O)cc2)c1
Homo sapiens
  inhibition: 52.5%
[1]
  IC50: 0.86 µM

## Cc1cc(C(=O)Nc2ccc(OC(F)(F)F)cc2)nn1Cc1cccc(N2CCOCC2)c1
Homo sapiens
  inhibition: 8.94%

## Cc1cc(C(=O)Nc2ccc(OC(F)(F)F)cc2)nn1Cc1ccccc1
Homo sapiens
  inhibition: 1.03%

## COc1ccccc1-c1cccc(Cn2nc(C(=O)Nc3ccc(OC(F)(F)F)cc3)cc2C)c1
Homo sapiens
  inhibition: 3.57%

## COc1cc(Cn2nc(C(=O)Nc3ccc(OC(F)(F)F)cc3)cc2C)cc(OC)c1
Homo sapiens
  inhibition: 2.05%

## CS(=O)(=O)C1CCN(c2cccc(Cn3nc(C(=O)Nc4ccc(OC(F)(F)F)cc4)c4c5nn(c6c5COCC6)c43)c2)CC1
Homo sapiens
  inhibition: 13.2%
[1]
  IC50: 101 µM

## COc1ccc(NC(=O)c2cc(C)n(Cc3cccc(N4CCN(C(=O)C5CC5)CC4)c3)n2)cc1OC
Homo sapiens
  inhibition: 4.85%

## Cc1cc(C(=O)Nc2ccc(F)cc2)nn1Cc1cccc(N2CCN(C(=O)C3CC3)CC2)c1
Homo sapiens
  inhibition: 8.24%

## CC(C)(C)c1cc(C(=O)Nc2ccc(OC(F)(F)F)cc2)nn1Cc1cccc(N2CCC(S(C)(=O)=O)CC2)c1
Homo sapiens
  inhibition: 38.7%
[1]
  IC50: 1.36 µM

## Cc1ccccc1Cn1nc(C(=O)Nc2ccc(OC(F)(F)F)cc2)cc1C
Homo sapiens
  inhibition: 1.7%

## Cc1cccc(NC(=O)c2cc(C)n(Cc3cccc(N4CCN(C(=O)C5CC5)CC4)c3)n2)c1
Homo sapiens
  inhibition: 6.44%

## Cc1ccc(NC(=O)c2cc(C)n(Cc3cccc(N4CCN(C(=O)C5CC5)CC4)c3)n2)cc1F
Homo sapiens
  inhibition: 3.49%

## Cc1cc(C(=O)Nc2ccc(OC(F)(F)F)cc2)nn1Cc1ccc(N2CCC(S(C)(=O)=O)CC2)cc1
Homo sapiens
  inhibition: 3.85%

## CS(=O)(=O)C1CCN(c2cccc(Cn3nc(C(=O)Nc4ccc(OC(F)(F)F)cc4)cc3-c3ccccc3)c2)CC1
Homo sapiens
  inhibition: 36.3%
[1]
  IC50: 1.41 µM

## Cc1cc(C(=O)Nc2ccc(OC(F)(F)F)cc2)nn1Cc1cccc(N(C)C2CCOCC2)c1
Homo sapiens
  inhibition: 13.5%

## Cc1cc(C)cc(-c2cccc(Cn3nc(C(=O)Nc4ccc(OC(F)(F)F)cc4)cc3C)c2)c1
Homo sapiens
  inhibition: 3.73%

## CS(=O)(=O)C1CCN(c2cccc(Cn3nc(C(=O)Nc4ccc(OC(F)(F)F)cc4)c4c5nn(c6c5CCC6)c43)c2)CC1
Homo sapiens
  inhibition: 29.2%
[1]
  IC50: 91.3 µM

## Cc1cc(C(=O)Nc2ccccc2OC(F)(F)F)nn1Cc1cccc(N2CCN(C(=O)C3CC3)CC2)c1
Homo sapiens
  inhibition: 1.87%

## Cc1nc(-c2nc(-c3ccc(OC(F)(F)F)cc3)no2)nn1Cc1cccc(N2CCC(S(C)(=O)=O)CC2)c1
NCM460
  IC50: > 1 µM
[2]
  Papp A→B at 2 h: 4.86 ×10⁻⁶ cm/s
HCT-116 [3]
  IC50: 0.00963 µM
KG-1 [4]
  IC50: 0.0638 µM
[5]
  Papp B→A at 2 h: 3.33 ×10⁻⁶ cm/s
Homo sapiens
  inhibition: 32.7%
HCT-116 [6]
  Activity: 21.1%
[1]
  IC50: 115 µM
KG-1 [7]
  Activity: Active
[8]
  efflux ratio at 2 h: 0.68

## Cc1cc(C(=O)Nc2ccc(OC(F)(F)F)cc2)nn1Cc1cccc(N2CCN(S(C)(=O)=O)CC2)c1
Homo sapiens
  inhibition: 50.4%
[1]
  IC50: 1.06 µM

## Cc1cc(C(=O)Nc2ccccc2)nn1Cc1cccc(N2CCN(C(=O)C3CC3)CC2)c1
Homo sapiens
  inhibition: 7.12%

## Cc1cc(C(=O)Nc2ccccc2F)nn1Cc1cccc(N2CCN(C(=O)C3CC3)CC2)c1
Homo sapiens
  inhibition: 1.72%

## Cc1cc(C(=O)Nc2ccc(Cl)c(F)c2)nn1Cc1cccc(N2CCN(C(=O)C3CC3)CC2)c1
Homo sapiens
  inhibition: 11.1%

## Cc1cc(C(=O)Nc2ccc(OC(F)(F)F)cc2)nn1Cc1ccc2ccccc2c1
Homo sapiens
  inhibition: 4.6%

## Cc1cc(C(=O)Nc2ccc(OC(F)(F)F)cc2)nn1Cc1cccc(Br)c1
Homo sapiens
  inhibition: 1.54%

## Cc1cn(Cc2cccc(N3CCC(S(C)(=O)=O)CC3)c2)nc1C(=O)Nc1ccc(OC(F)(F)F)cc1
Homo sapiens
  inhibition: 9.43%

## CS(=O)(=O)C1CCN(c2cccc(Cn3ccc(C(=O)Nc4ccc(OC(F)(F)F)cc4)n3)c2)CC1
Homo sapiens
  inhibition: 26.6%

## Cc1cc(C(=O)Nc2cccc(F)c2)nn1Cc1cccc(N2CCN(C(=O)C3CC3)CC2)c1
Homo sapiens
  inhibition: 1.54%

## C=C(C)[C@H]1Cc2c(ccc3c2O[C@@H]2COc4cc(OC)c(OC)cc4[C@@H]2C3=O)O1
Homo sapiens
  inhibition: 71.8%

## Cc1cc(C(=O)Nc2ccc(OC(F)(F)F)cc2)nn1Cc1ccc(F)c(Br)c1
Homo sapiens
  inhibition: 1.32%

## Cc1cc(C(=O)Nc2ccc(OC(F)(F)F)cc2)nn1Cc1cccc(-c2ccccc2O)c1
Homo sapiens
  inhibition: 25.6%

## CS(=O)(=O)C1CCN(c2cccc(Cn3nc(C(=O)Nc4ccc(OC(F)(F)F)cc4)c4c5nn(c6ccccc56)c43)c2)CC1
Homo sapiens
  inhibition: 1.12%
[1]
  IC50: 91.3 µM

## COc1ccc(NC(=O)c2cc(C)n(Cc3cccc(N4CCN(C(=O)C5CC5)CC4)c3)n2)cc1
Homo sapiens
  inhibition: 5.23%

## Cc1cc(C(=O)Nc2ccc(OC(F)(F)F)cc2)nn1Cc1cccc(N2CCC(S(C)(=O)=O)CC2)c1
Homo sapiens
  inhibition: 49.7%
[1]
  IC50: 0.96 µM

## Cc1cc(C(=O)Nc2cccc(OC(F)(F)F)c2)nn1Cc1cccc(N2CCN(C(=O)C3CC3)CC2)c1
Homo sapiens
  inhibition: 3.1%

## Cc1cc(C(=O)Nc2ccc(OC(F)(F)F)cc2)nn1Cc1cccc(-c2ccc(C(C)(C)C)cc2)c1
Homo sapiens
  inhibition: 29.6%

## Cc1cc(C(=O)Nc2cc(F)cc(F)c2)nn1Cc1cccc(N2CCN(C(=O)C3CC3)CC2)c1
Homo sapiens
  inhibition: 9.58%

## Cc1ccc(Cn2nc(C(=O)Nc3ccc(OC(F)(F)F)cc3)cc2C)cc1
Homo sapiens
  inhibition: 8.06%

## Cc1cc(C(=O)Nc2ccc(OC(F)(F)F)cc2)nn1Cc1cccnc1
Homo sapiens
  inhibition: 1.37%

## Cc1cc(C(=O)Nc2ccc(OC(F)(F)F)cc2)nn1Cc1cccc(N2CCS(=O)(=O)CC2)c1
Homo sapiens
  inhibition: 6.09%
